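Briefly, cells in 96-well plates were exposed to five compound concentrations for 48 h, and endpoints were estimated by linear interpolation. GI50 marks 50% less growth. TGI denotes the concentration required for complete inhibition of growth.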
Experiments:
Assay in all cases: NCI tumour cell line growth inhibition, 48 h
KM12 colon = tested on: KM12 colon
MOLT-4 leukemia = tested on: MOLT-4 leukemia
NCI-H226 lung = tested on: NCI-H226 lung
SK-OV-3 ovarian = tested on: SK-OV-3 ovarian
SNB-19 CNS = tested on: SNB-19 CNS
TK-10 renal = tested on: TK-10 renal
U251 CNS = tested on: U251 CNS
UO-31 renal = tested on: UO-31 renal
HOP-92 NSCLC = tested on: HOP-92 NSCLC
SK-MEL-5 melanoma = tested on: SK-MEL-5 melanoma

Structure (SMILES)	TGI (KM12 colon)	TGI (MOLT-4 leukemia)	TGI (NCI-H226 lung)	TGI (SK-OV-3 ovarian)	TGI (SNB-19 CNS)	TGI (TK-10 renal)	TGI (U251 CNS)	TGI (UO-31 renal)	GI50 (HOP-92 NSCLC)	TGI (HOP-92 NSCLC)	GI50 (KM12 colon)	GI50 (MOLT-4 leukemia)	GI50 (NCI-H226 lung)	GI50 (SK-OV-3 ovarian)	GI50 (SNB-19 CNS)	GI50 (TK-10 renal)	GI50 (U251 CNS)	GI50 (UO-31 renal)	TGI (SK-MEL-5 melanoma)	GI50 (SK-MEL-5 melanoma)
Cc1ccc2[nH]c3c(ncc4[nH]c5ccccc5c43)c2c1	29.6 µM	35.2 µM	30.4 µM	25.2 µM	31.6 µM	37.6 µM	28 µM	30.3 µM	–	–	–	–	–	–	–	–	–	–	–	–
Cc1nc2n(c(=O)c1CCN1CCC(c3noc4cc(F)ccc34)CC1)CCCC2	> 50 µM	> 50 µM	> 50 µM	> 50 µM	> 50 µM	> 50 µM	> 50 µM	> 50 µM	> 50 µM	> 50 µM	> 50 µM	> 50 µM	> 50 µM	> 50 µM	> 50 µM	> 50 µM	> 50 µM	> 50 µM	–	–
Cc1cc(C)c(S(=O)(=O)ONC(=O)OC(C)(C)C)c(C)c1	> 100 µM	> 100 µM	–	> 100 µM	> 100 µM	> 100 µM	> 100 µM	> 100 µM	–	> 100 µM	–	–	–	–	–	–	–	–	> 100 µM	–
CNC1C(O)C(OC2C(N)CC(N)C(OC3OC(C(C)O)C(O)C(O)C3N)C2O)OCC1(C)O (centres undefined)	> 100 µM	> 100 µM	> 100 µM	> 100 µM	> 100 µM	> 100 µM	> 100 µM	> 100 µM	–	–	–	–	–	–	–	–	–	–	> 100 µM	–
Nc1nnc(Cn2c(-c3ccccc3)nc3ccc(Br)cc3c2=O)s1	> 100 µM	48.8 µM	–	> 100 µM	> 100 µM	83.9 µM	> 100 µM	> 100 µM	10.8 µM	> 100 µM	25.1 µM	17.7 µM	–	> 100 µM	> 100 µM	32 µM	38.4 µM	> 100 µM	86.2 µM	26.8 µM
O=C(NNC(=O)c1cc(/C=C/c2cccc([N+](=O)[O-])c2)[nH]c(=S)n1)Nc1ccc(Cl)cc1	> 100 µM	72 µM	> 100 µM	> 100 µM	–	> 100 µM	30.2 µM	> 100 µM	–	–	–	–	–	–	–	–	–	–	> 100 µM	–
Cc1nc(Nc2ccc([N+](=O)[O-])cc2)sc1C(/C=C/c1ccc(N(C)C)cc1)=N/NC(=O)c1ccccc1	> 100 µM	> 100 µM	> 100 µM	> 100 µM	> 100 µM	> 100 µM	> 100 µM	> 100 µM	–	52.7 µM	–	–	–	–	–	–	–	–	–	–
COc1ccc(C(=O)COc2cccc(/C=C3\CSc4ccc(C)cc4C3=O)c2)cc1	> 100 µM	10.2 µM	> 100 µM	> 100 µM	> 100 µM	> 100 µM	> 100 µM	> 100 µM	–	–	3.69 µM	3.13 µM	> 100 µM	74.2 µM	> 100 µM	19.8 µM	7.38 µM	19.9 µM	> 100 µM	10.9 µM
N#CC1(C=O)c2ccccc2C=CN1C(=O)c1ccccc1 (centres undefined)	> 100 µM	44.9 µM	> 100 µM	–	> 100 µM	> 100 µM	> 100 µM	> 100 µM	–	65.9 µM	–	–	–	–	–	–	–	–	47.3 µM	–
Cn1c2c(c3ccccc31)CCN(CCCCN1CCN(c3cccc(Cl)c3)CC1)C2=O	–	31.6 µM	–	37.8 µM	42.8 µM	25.1 µM	24.6 µM	22.4 µM	–	34.7 µM	–	–	–	–	–	–	–	–	21.8 µM	–
